The values below come from US20060063759A1, “Tricyclic steroid hormone nuclear receptor modulators” (priority 2002, published 2006).

For orientation: Ki means a dissociation constant, usually derived from enzyme kinetics or from competition with a known ligand.

One assay has as its target T1, human MR (Homo sapiens, UniProt P08235).
T1 construct: The full length human MR gene is cloned from a human kidney or human brain cDNA library; His tag from the pAcHLT vector (own knowledge); made in house; host or cells: Sf9 insect cells (baculovirus, pAcHLT transfer vector)
T1 sequence (P08235 1-984): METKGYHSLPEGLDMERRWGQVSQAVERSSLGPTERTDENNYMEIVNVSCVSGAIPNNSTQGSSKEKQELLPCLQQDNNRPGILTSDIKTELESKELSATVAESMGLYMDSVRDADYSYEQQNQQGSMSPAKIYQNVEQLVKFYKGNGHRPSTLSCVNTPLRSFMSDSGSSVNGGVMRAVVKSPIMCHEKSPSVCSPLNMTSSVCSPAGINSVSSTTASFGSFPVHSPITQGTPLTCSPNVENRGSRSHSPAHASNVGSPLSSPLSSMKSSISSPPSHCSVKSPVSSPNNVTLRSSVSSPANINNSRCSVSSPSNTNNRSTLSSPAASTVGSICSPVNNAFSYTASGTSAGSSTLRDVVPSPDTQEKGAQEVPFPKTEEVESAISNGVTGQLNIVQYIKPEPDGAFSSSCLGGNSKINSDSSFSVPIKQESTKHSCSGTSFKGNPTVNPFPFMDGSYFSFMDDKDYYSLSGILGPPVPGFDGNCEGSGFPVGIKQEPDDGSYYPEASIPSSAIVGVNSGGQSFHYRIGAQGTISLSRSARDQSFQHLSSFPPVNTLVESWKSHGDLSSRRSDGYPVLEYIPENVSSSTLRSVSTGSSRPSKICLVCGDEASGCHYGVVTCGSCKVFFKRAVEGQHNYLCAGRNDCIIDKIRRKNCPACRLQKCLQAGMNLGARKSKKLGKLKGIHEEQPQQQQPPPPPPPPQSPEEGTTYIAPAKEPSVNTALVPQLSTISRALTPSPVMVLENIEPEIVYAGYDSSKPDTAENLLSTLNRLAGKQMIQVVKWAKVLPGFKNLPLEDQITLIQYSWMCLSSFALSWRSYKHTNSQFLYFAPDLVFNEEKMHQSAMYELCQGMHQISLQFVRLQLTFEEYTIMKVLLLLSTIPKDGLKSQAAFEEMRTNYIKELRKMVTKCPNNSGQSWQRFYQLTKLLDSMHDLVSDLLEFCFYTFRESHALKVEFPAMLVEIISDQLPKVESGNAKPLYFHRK
Kind of assay: Mineralocorticoid Receptor Binding Assay ([3H]-aldosterone). The settings on record: [3H]-aldosterone binding, human MR expressed in Sf9 cells; read-out: MR Ki. The essentials: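 Lysate supernatant of Sf9 cells expressing full-length human MR (20-25 μg protein) was incubated with 0.5 nM [3H]-aldosterone and test compound in molybdate/Tris/phosphate/glycerol buffer, pH 7.5, ~16 h at 4 °C. Bound ligand was filtered and counted by scintillation; IC50 is the concentration halving [3H]-aldosterone binding.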

The next assay has as its target T2, glucocorticoid receptor (Homo sapiens, UniProt P04150).
T2 construct: containing 50-200 ug of A549 cell extract and 1.86 nM [^3H]-dexamethasone; host or cells: A549 human lung epithelial cells (sonicated cell extract)
T2 sequence (P04150 1-777): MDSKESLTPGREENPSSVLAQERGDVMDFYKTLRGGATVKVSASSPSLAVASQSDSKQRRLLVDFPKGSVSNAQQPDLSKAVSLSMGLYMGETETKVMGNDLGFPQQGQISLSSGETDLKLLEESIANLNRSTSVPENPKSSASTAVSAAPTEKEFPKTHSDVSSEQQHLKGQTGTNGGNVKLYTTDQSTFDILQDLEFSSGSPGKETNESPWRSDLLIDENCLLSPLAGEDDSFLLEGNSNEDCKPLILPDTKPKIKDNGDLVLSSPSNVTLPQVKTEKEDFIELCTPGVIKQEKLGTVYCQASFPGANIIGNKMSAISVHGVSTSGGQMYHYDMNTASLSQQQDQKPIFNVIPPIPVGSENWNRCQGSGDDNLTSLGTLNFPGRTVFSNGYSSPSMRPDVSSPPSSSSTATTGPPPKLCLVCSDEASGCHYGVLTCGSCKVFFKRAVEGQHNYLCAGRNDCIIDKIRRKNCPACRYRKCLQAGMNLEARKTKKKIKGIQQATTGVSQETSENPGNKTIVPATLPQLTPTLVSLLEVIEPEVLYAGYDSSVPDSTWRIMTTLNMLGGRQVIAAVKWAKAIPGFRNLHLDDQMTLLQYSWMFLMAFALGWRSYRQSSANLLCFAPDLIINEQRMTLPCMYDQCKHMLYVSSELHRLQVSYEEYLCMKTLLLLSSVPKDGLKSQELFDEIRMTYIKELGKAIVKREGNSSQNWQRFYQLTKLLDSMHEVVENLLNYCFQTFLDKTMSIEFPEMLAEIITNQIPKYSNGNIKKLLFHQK
Kind of assay: Glucocorticoid Receptor Binding Assay ([3H]-dexamethasone, A549 cell extract). The settings on record: [3H]-dexamethasone binding, read-out: GR Ki. The method, then: All ligands, radioligands, solvents, and reagents employed in the binding assays are readily available from commercial sources, or can be readily synthesized by the ordinarily skilled artisan.
A549 human lung epithelial cells (ATCC) are grown at a scale where gram quantity cell pellets are obtained. Harvested cell pellets are washed twice in cold phosphate buffered saline, centrifuged, and resuspended in cold assay binding buffer. The assay binding buffer consists of 10% glycerol, 50 mM Tris-HCl (pH7.2), 75 mM sodium chloride, 1.5 mM magnesium chloride, 1.5 mM EDTA, and 10 mM sodium molybdate. Cell suspensions were lysed via sonication, centrifuged, and the “extract” supernatant is snap frozen and stored at −80 C until needed.
GR binding assays are performed in a final volume of 140 ul containing 50-200 ug of A549 cell extract and 1.86 nM [^3H]-dexamethasone (Amersham) plus varying concentrations of test compound or vehicle. Briefly, assays are prepared at RT in 96-well Fisher 3356 plates, each well containing 100 ul of A549 cell extract, 20 ul of [^3H]-dexamethasone, and 20 ul of test compound/vehicle. Incubations are carried out at 4 degrees Celsius for 16 hours. After incubation, 70 ul of 3× dextran-coated charcoal solution is added to each reaction, mixed, and incubated for 8 minutes at RT. 3×-dextran-coated charcoal solution consists of 250 ml assay binding buffer, 3.75 g Norit A charcoal (Sigma), and 1.25 g dextran T-70 (Amersham). Charcoal/unbound radioligand complexes are removed by centrifugation of the plate and 140 ul of supernatant from each well is transferred to another 96 well Optiplate (Packard Instruments). 200 ul of Microscint-20 scinillant (Packard Instruments) is added to each well and amount of receptor bound radioligand is determined using Packard Instruments TopCount instrument.

Regarding `CS(=O)(=O)Nc1cccc(C=C2c3ccccc3CCc3ccc(Cl)cc32)c1` [188(a), N-[3-(3-Chloro-10,11-dihydro-dibenzo[a,d]cyclohepten-5-ylidenemethyl)-phenyl]-methanesulfonamide], the Ki at human MR and on glucocorticoid receptor was less than 500 nM each time.
Take `Oc1cccc(C=C2c3ccccc3CCc3cc(OCCN4CCOCC4)ccc32)c1` [195(a), 3-[2-(2-Morpholin-4-yl-ethoxy)-10,11-dihydro-dibenzo[a,d]cyclohepten-5-ylidenemethyl]-phenol]: the Ki at human MR was less than 500 nM; on glucocorticoid receptor, less than 1000 nM.
`CS(=O)(=O)Nc1cccc(C=C2c3ccccc3CCc3c2ccc(Cl)c3Cl)c1` [197(a), N-[3-(1,2-Dichloro-10,11-dihydro-dibenzo[a,d]cyclohepten-5-ylidenemethyl)-phenyl]-methanesulfonamide]: the Ki at human MR and on glucocorticoid receptor was less than 500 nM throughout.
With `Oc1cccc(C=C2c3ccccc3CCc3c2ccc(Cl)c3Cl)c1` [198(a), 3-(1,2-Dichloro-10,11-dihydro-dibenzo[a,d]cyclohepten-5-ylidenemethyl)-phenol], the Ki at human MR and on glucocorticoid receptor was less than 500 nM in each case.
As to `Oc1cccc(C=C2c3ccccc3CCc3c2ccc(Cl)c3Cl)c1` [198(b), 3-(1,2-Dichloro-10,11-dihydro-dibenzo[a,d]cyclohepten-5-ylidenemethyl)-phenol], the values for the Ki on human MR and at glucocorticoid receptor were less than 500 nM and less than 1000 nM, respectively.
On to `CS(=O)(=O)Nc1cccc(C=C2c3ccccc3CCc3cc(F)ccc32)c1` [199(a), N-[3-(2-Fluoro-10,11-dihydro-dibenzo[a,d]cyclohepten-5-ylidenemethyl)-phenyl]-methanesulfonamide], for which the Ki on human MR and on glucocorticoid receptor was less than 500 nM in each case.
With `Oc1cccc(C=C2c3ccccc3CCc3cc(F)ccc32)c1` [200(a), 3-(2-Fluoro-10,11-dihydro-dibenzo[a,d]cyclohepten-5-ylidenemethyl)-phenol], the Ki on human MR and at glucocorticoid receptor was less than 500 nM each time.
As to `CS(=O)(=O)Nc1cccc(C=C2c3ccccc3CCc3cc(Cl)ccc32)c1` [206(b), N-[3-(2-Chloro-10,11-dihydro-dibenzo[a,d]cyclohepten-5-ylidenemethyl)-phenyl]-methanesulfonamide], the Ki on human MR and on glucocorticoid receptor was less than 500 nM each time.
For `Oc1cccc(C=C2c3ccccc3CCc3c(Cl)cccc32)c1` [211(a), 3-(1-Chloro-10,11-dihydro-dibenzo[a,d]cyclohepten-5-ylidenemethyl)-phenol], the Ki on human MR and on glucocorticoid receptor was less than 500 nM throughout.
Turning to `Oc1cccc(C=C2c3ccccc3CCc3c(Cl)cccc32)c1` [211(b), 3-(1-Chloro-10,11-dihydro-dibenzo[a,d]cyclohepten-5-ylidenemethyl)-phenol], the Ki was less than 500 nM at human MR and less than 1000 nM at glucocorticoid receptor.
`Cc1nc2c(s1)/C(=C/c1cccc(NS(C)(=O)=O)c1)c1ccccc1CC2` [483(a), N-[3-(2-Methyl-9,10-dihydro-3-thia-1-aza-benzo[f]azulen-4-ylidenemethyl)-phenyl]-methanesulfonamide]: the Ki at human MR and at glucocorticoid receptor was less than 500 nM each time.
`Cc1nc2c(s1)/C(=C\c1cccc(NS(C)(=O)=O)c1)c1ccccc1CC2` [483(b), N-[3-(2-Methyl-9,10-dihydro-3-thia-1-aza-benzo[f]azulen-4-ylidenemethyl)-phenyl]-methanesulfonamide]: the Ki at human MR and at glucocorticoid receptor was less than 500 nM throughout.
As to `CS(=O)(=O)Nc1cccc(/C=C2\c3ccccc3CCc3scnc32)c1` [484(a), N-[3-(9,10-Dihydro-1-thia-3-aza-benzo[f]azulen-4-ylidenemethyl)-phenyl]-methanesulfonamide], the Ki was less than 1000 nM at human MR and less than 500 nM at glucocorticoid receptor.
Take `CS(=O)(=O)Nc1cccc(/C=C2/c3ccccc3CCc3scnc32)c1` [484(b), N-[3-(9,10-Dihydro-1-thia-3-aza-benzo[f]azulen-4-ylidenemethyl)-phenyl]-methanesulfonamide]: the Ki on human MR and on glucocorticoid receptor was less than 500 nM in each case.
`NS(=O)(=O)c1ccccc1C=C1c2ccccc2CCc2ccccc21` [Example 3, 2-(10,11-Dihydro-dibenzo[a,d]cyclohepten-5-ylidenemethyl)-benzenesulfonamide]: the Ki at human MR and at glucocorticoid receptor was less than 1000 nM in each case.
With `CN(C)S(=O)(=O)c1ccccc1C=C1c2ccccc2CCc2ccccc21` [Example 5, 2-(10,11-Dihydro-dibenzo[a,d]cyclohepten-5-ylidenemethyl)-N,N-dimethyl-benzenesulfonamide], the Ki at human MR and on glucocorticoid receptor was less than 500 nM in each case.
For the compound `COc1ccc(N)cc1C=C1c2ccccc2CCc2ccccc21` [Example 41, 3-(10,11-Dihydro-dibenzo[a,d]cyclohepten-5-ylidenemethyl)-4-methoxy-phenylamine], the Ki at human MR is less than 1000 nM; at glucocorticoid receptor, less than 10000 nM.
For `COc1ccc(NS(C)(=O)=O)cc1C=C1c2ccccc2CCc2ccccc21` [Example 42, N-[3-(10,11-Dihydro-dibenzo[a,d]cyclohepten-5-ylidenemethyl)-4-methoxy-phenyl]-methanesulfonamide], in that order: less than 500 nM and less than 10000 nM.
Take `Cc1ccc(C=C2c3ccccc3CCc3ccccc32)cc1NS(C)(=O)=O` [Example 45, N-[5-(10,11-Dihydro-dibenzo[a,d]cyclohepten-5-ylidenemethyl)-2-methyl-phenyl]-methanesulfonamide]: the Ki at human MR was less than 500 nM; on glucocorticoid receptor, less than 1000 nM.
Turning to `Cc1ccc(NS(C)(=O)=O)cc1C=C1c2ccccc2CCc2ccccc21` [Example 47, N-[3-(10,11-Dihydro-dibenzo[a,d]cyclohepten-5-ylidenemethyl)-4-methyl-phenyl]-methanesulfonamide], the Ki at human MR is less than 500 nM; on glucocorticoid receptor it was less than 1000 nM.
